The target in assay [1] is T1, OdinAK (AdkA1) (Candidatus Odinarchaeum yellowstonii, UniProt A0AAF0D2B2).
T1 sequence (A0AAF0D2B2 1-198): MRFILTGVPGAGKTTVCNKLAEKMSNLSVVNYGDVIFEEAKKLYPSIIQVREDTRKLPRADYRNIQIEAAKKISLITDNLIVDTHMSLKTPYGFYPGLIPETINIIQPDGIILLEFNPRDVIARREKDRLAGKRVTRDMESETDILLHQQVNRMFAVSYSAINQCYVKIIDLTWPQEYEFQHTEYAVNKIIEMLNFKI
The assay is described as follows: ITC. The assay is classed as binding.

Assay [2] deals with T1, OdinAK (AdkA1). The assay is described as follows: […] real-time NMR. The assay is classed as biochemical. The note with it: 65 °C, 1 mM ATP (or other NTP), 300 μM AMP, 5 mM MgCl2, pH 7.0.
Assay [3] deals with T1, OdinAK (AdkA1). The assay can be described thus: X-ray crystal structure. The assay is classed as binding. The settings on record: ATP/AMP-mimicking inhibitor, spans both substrate sites.
Assay [4] deals with adenylate kinase from Odinarchaeota (OdinAK), wild type (Odinarchaeota). The assay can be described thus: SEC-MALS. In general terms: In gel filtration, larger molecules generally elute earlier.

For orientation: Kd means the constant that tells how readily two partners part at equilibrium. Read a high Kd as weaker binding. On OdinAK (AdkA1) [1], `Nc1nc2c(ncn2[C@@H]2O[C@H](COP(=O)(O)OP(=O)(O)OP(=O)(O)O)[C@@H](O)[C@H]2O)c(=O)[nH]1` [GTP] registered a Kd of 7.2 ± 0.6 µM.

With `Nc1ccn([C@@H]2O[C@H](COP(=O)(O)OP(=O)(O)OP(=O)(O)O)[C@@H](O)[C@H]2O)c(=O)n1` [CTP], binding on OdinAK (AdkA1) [1] was put at a Kd of 28.7 ± 7 µM.

On to `O=c1ccn([C@@H]2O[C@H](COP(=O)(O)OP(=O)(O)OP(=O)(O)O)[C@@H](O)[C@H]2O)c(=O)[nH]1` [UTP], for which, on OdinAK (AdkA1) [1], binding was put at a Kd of 4.6 ± 0.5 µM.

As for `Nc1ncnc2c1ncn2[C@@H]1O[C@H](COP(=O)(O)O)[C@@H](O)[C@H]1O` [AMP], the “31P real-time NMR” value on OdinAK (AdkA1) [2] is “OdinAK can use GTP and all other NTPs as substrate for phosphorylation of AMP”.

Consider `Nc1ncnc2c1ncn2[C@@H]1O[C@H](COP(=O)(O)OP(=O)(O)O)[C@@H](O)[C@H]1O` [ADP], for which binding at OdinAK (AdkA1) [1] was characterised by a dissociation constant (Kd) of 0.8 ± 0.1 µM.

For `Nc1ncnc2c1ncn2[C@@H]1O[C@H](COP(=O)(O)OP(=O)(O)OP(=O)(O)OP(=O)(O)OP(=O)(O)OC[C@H]2O[C@@H](n3cnc4c(N)ncnc43)[C@H](O)[C@@H]2O)[C@@H](O)[C@H]1O` [Ap5A, P^1,P^5-di(adenosine-5′) pentaphosphate], at OdinAK (AdkA1) [3], the X-ray crystal structure entry was “we determined the crystal structure of the enzyme in complex with the tight binding”.

Broadly, the stoichiometry N is the number of molecules, sites or subunits per partner or assembly. In assay [4], “adenylate kinase from Odinarchaeota (OdinAK), wild type (enzyme)” returned a stoichiometry N of 3.

Turning to `Nc1ncnc2c1ncn2[C@@H]1O[C@H](COP(=O)(O)OP(=O)(O)OP(=O)(O)O)[C@@H](O)[C@H]1O` [ATP], at OdinAK (AdkA1) [1], binding was characterised by a dissociation constant (Kd) of 0.3 ± 0.1 µM.

Regarding `Cc1cn([C@H]2C[C@H](O)[C@@H](COP(=O)(O)OP(=O)(O)OP(=O)(O)O)O2)c(=O)[nH]c1=O` [dTTP], at OdinAK (AdkA1) [1], binding was characterised by a dissociation constant (Kd) of 24.2 ± 8 µM.

Values taken from article PMC9635829 (Science Advances, 2022).
